The values that follow come from patent US20220202911A1 (Amryt Endo, Inc., priority 2020, published 2022).

The conditions of data set [1]: digoxin 0.5 mg alone (placebo).
Description: (§1) This was a single-center, randomized, single-blind, placebo-controlled study in 18 healthy subjects. Two groups of subjects were studied in a 4-treatment, 2-sequence, and crossover design. The study was comprised of a screening period, a treatment period, and a follow-up period (approximately 10-13 days following the last test condition). Subjects were randomized in a 1:1 ratio to one of 2 sequences (i.e., Group 1 or 2) of 4 test conditions (i.e., A-D) as shown in Table 1.
A short description of data set [2]: clinical. The following applies: human, plasma; for AUC(0-t): AUC(0-12).
Description: as §1
The nature of data set [3]: clinical. The following applies: human, in vivo; for AUC(0-t): AUC(0-12).
[4] abbreviates: oral, least squares geometric mean, digoxin alone (second geometric-mean column; no unit printed in Table 7).
Setting [5] is: least squares geometric mean, Reference.
Where [6] appears, read: least squares geometric mean, Test.

What is called Tmax is the time at which the peak concentration occurs. Usually AUC(0-t) stands for the area under the concentration-time curve up to a stated or last time point. Low values mean less exposure, high ones more exposure. A word on the Cmax: it is the peak of the concentration-time curve. With `C[C@H]1O[C@@H](O[C@H]2[C@@H](O)C[C@H](O[C@H]3[C@@H](O)C[C@H](O[C@H]4CC[C@@]5(C)[C@H](CC[C@@H]6[C@@H]5C[C@@H](O)[C@]5(C)[C@@H](C7=CC(=O)OC7)CC[C@]65O)C4)O[C@@H]3C)O[C@@H]2C)C[C@H](O)[C@@H]1O` [Digoxin, digoxin], the “Tmax, median” value in data set [1] is on record as 1 h. Besides, the Tmax in “clinical [2]” (oral) came to 3 h. The AUC(0-t) in “clinical [2]” (oral, 0.5 mg, mean ± SD, digoxin 0.5 mg alone (placebo)) turned out to be 0.00914 ± 0.00203 µg·h/mL; in “clinical [2]” (setting [4]) it was 0.00891 µg·h/mL. The Cmax in the data set “clinical [2]” (setting [4]) came out at 0.00238 µg/mL; in the data set “clinical [2]” (po, mean ± SD, digoxin 0.5 mg oral single dose alone (placebo; lisinopril 20 mg co-administered)), 0.0025 ± 0.00071 µg/mL.
Turning to `NCCCC[C@H](N[C@@H](CCc1ccccc1)C(=O)O)C(=O)N1CCC[C@H]1C(=O)O` [Lisinopril, lisinopril], in “clinical [3]”, the AUC0-12 increase was 40%, the Cmax increase is listed as 50%, the time of peak concentration (Tmax) was 7 h and the “change in the rate of absorption (from Tmax)” value is “no apparent change”. Moreover, in the data set “clinical [3]”, the “individual decreases in AUC0-12, 3 of 17 subjects” value is on record as 6.17-16.1%; the “individual increases in AUC0-12, remaining 14 subjects” value was 2.98-140%; the “share of the 14 subjects with an increase in AUC0-12 that had an increase 25% (11 subjects)” value was 79%. Further, the time of peak concentration (Tmax) in “clinical [3]” (20 mg) turned out to be 7.5 h. In “clinical [3]” (20 mg, mean ± SD), this compound yielded an exposure AUC(0-t) of 0.69 ± 0.207 µg·h/mL. In “clinical [3]” (setting [5]), this compound registered an AUC(0-t) of 0.661 µg·h/mL and a peak concentration (Cmax) of 0.0836 µg/mL. In “clinical [3]” (setting [6]), this compound had an AUC(0-t) of 0.923 µg·h/mL and a peak concentration (Cmax) of 0.126 µg/mL.
